Source: patent publication US20200095296A1, “USE OF PEPTIDES AS BIOMARKERS IN THE DIAGNOSIS, CONFIRMATION AND TREATMENT OF A NEUROLOGICAL DISORDER AND TCR AND/OR HLA IMMUNOPROFILING IN NEURODEGENERATIVE DISEASE” (THE TRUSTEES OF COLUMBIA UNIVERSITY IN THE CITY OF NEW YORK, priority 2017, published 2020)
Where no end group is shown, it is not given here. [ ]: non-standard residue; d: D form. pT = C[C@@H](OP(=O)(O)O)[C@H](N)C(=O)O

System: PBMC
Assay: IFNg/IL-5 dual ELISPOT after 14 day in vitro stimulation of PBMC with Tau peptides
Type: cell-based, human
Settings: for PD Total Responders / PD Total SFC / PD % of Total Responders: PD donors; for Total Responders / Total SFC: all three cohorts (PD, HC > 50, HC < 35); for HC < 35 Total Responders / HC < 35 Total SFC: healthy controls < 35 years old; for % of total response / Average SFC per responder / Frequency of response / Total SFC per epitope: across all cohorts
Description: It was investigated whether T cell responses against Tau were detectable in the PD and healthy control (HC) donors. To this end, a panel of overlapping peptides spanning through the entire sequence of the Tau protein was synthesized. Since it is known that the Tau protein is post-translationally modified (mainly by phosphorylation), in several instances phosphorylated peptides were also synthesized. In all, 55 non-modified 16-mers overlapping by 8 and 14 modified 16-mers were synthesized.
PD: n=16, peptides tested 14-16 times; HC above 50 years old denominated as age-matched: n=11 (9-11 times) and HC below 35 years old (HC Young): n=13 (10-13 times).
These peptides were tested utilizing the following assay strategy. Briefly, PBMC from each donor were stimulated in vitro for 14 days as described (Hinz, D., 2015) with pools of 10 to 16 peptides each. After 14 days, the T cell cultures were assayed with IFNg/IL-5 dual ELISPOT assays […]. Positive pools were deconvoluted at day 17 to identify the specific individual epitopes recognized.

[1] = healthy controls > 50 years old

Sequence | PD Total Responders | PD Total SFC | Total Responders | Total SFC | HC < 35 Total Responders | HC < 35 Total SFC | HC > 50 Total Responders [1] | HC > 50 Total SFC [1] | PD/HC > 50 Ratio of % Responders | PD/HC > 50 Ratio of Response | HC > 50 % of Total Responders | HC > 50 Total SFC (HC > 50, dominant epitopes) | PD % of Total Responders | PD Total SFC (dominant epitopes) | % of total response | Average SFC per responder | Frequency of response | Total SFC per epitope
IDMVDSPQLATLADEV (listed as Homo sapiens) [Tau 16-mer, start 417] | 1 | 173 SFC | 1 | 173 SFC | 0 | 0 SFC | 0 | 0 SFC |  |  |  |  |  |  |  |  |  | 
VDLSKVTSKCGSLGNI (listed as Homo sapiens) [Tau 16-mer, start 313] |  |  |  |  |  |  |  |  | 2.0 | 7.5 | 28.6% | 897 SFC | 57.1% | 671 SFC | 2.8% | 1409 SFC | 13.2 | 9861 SFC
SNVSSTGSIDMVDZPQ | 4 | 1484 SFC | 4 | 1484 SFC | 0 | 0 SFC | 0 | 0 SFC |  |  |  |  |  |  |  |  |  | 
GDTSPRHLSNVSSTGS (listed as Homo sapiens) [Tau 16-mer, start 401] |  |  |  |  |  |  |  |  | 0.3 | 0.6 | 50.0% | 1657 SFC | 16.7% | 997 SFC | 1.1% | 633 SFC | 11.3 | 3798 SFC
IDMVDZPQLATLADEV | 1 | 197 SFC | 5 | 1703 SFC | 2 | 563 SFC | 2 | 943 SFC |  |  |  |  |  |  |  |  |  | 
KVAVVRXPPKSPSSAK | 12 | 22410 SFC | 23 | 46324 SFC | 8 | 16927 SFC | 3 | 6987 SFC | 4.0 | 3.2 | 13.0% | 6987 SFC | 52.2% | 22410 SFC | 13.2% | 12014 SFC | 43.4 | 46324 SFC
KIGSLDNITHVPGGGN (listed as Homo sapiens) [Tau 16-mer, start 353] |  |  |  |  |  |  |  |  | inf | inf | 0.0% | 0 SFC | 100.0% | 4070 SFC | 1.2% | 4070 SFC | 1.9 | 4070 SFC
PAPKXPPSSGEPPKSG (PAPK[pT]PPSSGEPPKSG) | 9 | 14672 SFC | 26 | 42624 SFC | 12 | 21745 SFC | 5 | 6207 SFC | 1.8 | 2.4 | 19.2% | 6207 SFC | 34.6% | 14672 SFC | 12.2% | 1639 SFC | 49.1 | 42624 SFC
PMPDLKNVKSKIGZTE | 5 | 5175 SFC | 11 | 11063 SFC | 2 | 720 SFC | 4 | 5168 SFC | 1.3 | 1 | 36.4% | 5168 SFC | 45.5% | 5175 SFC | 3.2% | 1006 SFC | 20.8 | 11063 SFC
TRIPAKTPPAPKTPPS (listed as Homo sapiens) [Tau 16-mer, start 169] |  |  |  |  |  |  |  |  | 1.0 | 8.1 | 33.3% | 180 SFC | 33.3% | 145 SFC | 1.1% | 1299 SFC | 5.7 | 3897 SFC
VYKSPVVSGDTSPRHL (listed as Homo sapiens) [Tau 16-mer, start 393] |  |  |  |  |  |  |  |  | 1.0 | 2.6 | 42.9% | 3397 SFC | 42.9% | 8951 SFC | 3.8% | 1915 SFC | 13.2 | 13408 SFC
TPPTREPKKVAVVRTP (listed as Homo sapiens) | 1 | 1707 SFC | 1 | 1707 SFC | 0 | 0 SFC | 0 | 0 SFC |  |  |  |  |  |  |  |  |  | 
KTDHGAEIVYKSPVVS (listed as Homo sapiens) [Tau 16-mer, start 385] |  |  |  |  |  |  |  |  | 7.0 | 5.5 | 8.3% | 2437 SFC | 58.3% | 13336 SFC | 5.7% | 1679 SFC | 22.6 | 20142 SFC
SVQIVYKPVDLSKVTS (listed as Homo sapiens) |  |  |  |  |  |  |  |  | 0.9 | 1.1 | 42.1% | 5460 SFC | 36.8% | 6203 SFC | 4.0% | 731 SFC | 35.8 | 13888 SFC
